Measured values as given in publication PMC12299890 (Pharmaceuticals, 2025).
Read-outs that look alike come from different tables or passages of the source.

Assay: Serum concentration and pharmacokinetics of SCI after oral gavage in Wistar rats
Assay type: in vivo, Wistar rat
Conditions: for AUC(0-t) / Cmax / Tmax / k el / MRT / half-life: male, Wistar, rat, po, 10 mg/kg; for k el: read-out: K (elimination rate constant) (converted); for MRT: read-out: MRT (mean residence time); for half-life: read-out: T0.5e (elimination half-life) (converted)
Description: All procedures were performed according to the Local Ethical Committee of Experiments on Animals guidelines in Olsztyn, Poland. The experiment was conducted in the same way as described by Antonowski et al.. Briefly, the experiment was performed on male Wistar rats (n = 6). Rats were maintained in ventilated rooms under a standard day photoperiod (12:12 h light–dark) as well as with lights on from 700 to 1900 h at 21 °C. All rats had free access to food and water. At 42 days of age, rats were randomized into experimental groups (Table 1 and Table 4).
Before the administration of cyclitol (10 mg/kg), the rats were fasting for 12 h (Table 1). […] Access to water was unlimited during the experiments. The study group (n = 6) was divided into two subgroups (n = 3 rats per subgroup). This practice allows for the use of only 6 rats for the entire experiment in accordance with the 3 Rs principle. Rats received the compound at a dose of 10 mg/kg body weight. Rats were weighed before starting the compound administration. Cyclitol was administered to the rats from the study group using a stainless-steel gastric tube with a ball tip (manufacturer—Agnthos, curved gastric tube, 16G, 3 mm tip, 75 mm). Cyclitol was dissolved in distilled water to a maximum volume of 1 mL. The prepared solution was administered to the animal.
Blood samples were collected into Eppendorf tubes and were centrifuged at 2500× g for 10 min at 8 °C the following day. Blood was harvested from the tail at a specific time. […] Serum was stored at −80 °C for subsequent analyses.
The analysis is described in detail by Antonowski and co-workers. Briefly, the first step was to remove the protein, then concentrate the sample in a speed vacuum evaporator to dryness. Next, samples were analyzed using the high-resolution gas chromatography method. We used a gas chromatograph GC2010Plus (Shimadzu, Tokyo, Japan) with a capillary column ZEBRON ZB-1 (15 m length, 0.25 mm diameter, and 0.1 μm film thickness, Phenomenex, Torrance, CA, USA). Helium was used as a carrier gas (at a flow rate of 1.18 mL min^−1). […] Finally, scyllo-inositol was quantified by using a standard.
The PK parameters were calculated using PK Solver. PKSolver is an add-in program for pharmacokinetic and pharmacodynamic data analysis […]. […] The area under the drug concentration–time curve from time zero to the time of the last quantifiable concentration (AUClast) was calculated using the trapezoidal rule. The volume over which the drug was distributed (Vd) and clearance (CL) were conducted by PK Solver. […] Nevertheless, we estimated K by log-linear regression analysis on data points on the terminal log-linear phase. Noncompartmental analysis is generally the preferred methodology to use in that it requires fewer assumptions than model-based approaches. We presented the results for individual rats, subgroups of rats, and for all subjects studied. The content of scyllo-inositol was calculated from the standard curves of appropriate components. To determine the terminal phase, […] was sufficient.
An analysis of all parameters was carried out with GraphPad Prism software (Version 10 Graph Pad Software Inc., La Jolla, CA, USA). Data are expressed as means ± SEM or individual data. Briefly, AUClast was calculated using the trapezoidal method. The T0.5 of oral administration was calculated as 0.693/K.

[1] = serum, Mean of rats 1–3 ± SEM, oral 10 mg/kg
[2] = serum, Mean of rats 1–3 ± SEM, serum, oral 10 mg/kg
[3] = serum, Mean of rats 4–6 ± SEM, oral 10 mg/kg
[4] = serum, Mean of rats 4–6 ± SEM, serum, oral 10 mg/kg
[5] = serum, Rat No 1, serum, oral 10 mg/kg
[6] = serum, Rat No 2, serum, oral 10 mg/kg
[7] = serum, Rat No 3, serum, oral 10 mg/kg
[8] = serum, Rat No 4, serum, oral 10 mg/kg
[9] = serum, Rat No 5, serum, oral 10 mg/kg
[10] = serum, Rat No 6, serum, oral 10 mg/kg
[11] = serum, mean serum profile of six rats, oral 3.92 mg SCI (10 mg/kg)
[12] = mean serum profile of six rats, oral 3.92 mg SCI (10 mg/kg)

AUC(0-t) [1]: 36400 ± 3390 ng·h/mL
Cmax [1]: 6730 ± 291 ng/mL
Tmax [1]: 1.33 ± 0.167 h
k el [2]: 0.000237 s⁻¹
MRT [2]: 36.2 ± 20.7 h
half-life [2]: 1510 ± 861 min
AUC(0-t) [3]: 19800 ± 4260 ng·h/mL
Cmax [3]: 4900 ± 874 ng/mL
Tmax [3]: 2.67 ± 0.667 h
k el [4]: 0.000126 s⁻¹
MRT [4]: 3.6 ± 1.48 h
half-life [4]: 150 ± 61.4 min
AUC(0-t) (serum, Rat No 1, oral 10 mg/kg): 40800 ng·h/mL
Cmax (serum, Rat No 1, oral 10 mg/kg): 7200 ng/mL
Tmax (serum, Rat No 1, oral 10 mg/kg): 1.5 h
k el [5]: 0.0007 s⁻¹
MRT [5]: 0.397 h
half-life [5]: 16.5 min
AUC(0-t) (serum, Rat No 2, oral 10 mg/kg): 38600 ng·h/mL
Cmax (serum, Rat No 2, oral 10 mg/kg): 6200 ng/mL
Tmax (serum, Rat No 2, oral 10 mg/kg): 1.5 h
k el [6]: 3.85e-06 s⁻¹
MRT [6]: 72.1 h
half-life [6]: 3000 min
AUC(0-t) (serum, Rat No 3, oral 10 mg/kg): 29700 ng·h/mL
Cmax (serum, Rat No 3, oral 10 mg/kg): 6800 ng/mL
Tmax (serum, Rat No 3, oral 10 mg/kg): 1 h
k el [7]: 7.67e-06 s⁻¹
MRT [7]: 36.3 h
half-life [7]: 1510 min
AUC(0-t) (serum, Rat No 4, oral 10 mg/kg): 11400 ng·h/mL
Cmax (serum, Rat No 4, oral 10 mg/kg): 3200 ng/mL
Tmax (serum, Rat No 4, oral 10 mg/kg): 2 h
k el [8]: 0.000253 s⁻¹
MRT [8]: 1.1 h
half-life [8]: 45.7 min
AUC(0-t) (serum, Rat No 5, oral 10 mg/kg): 25300 ng·h/mL
Cmax (serum, Rat No 5, oral 10 mg/kg): 6100 ng/mL
Tmax (serum, Rat No 5, oral 10 mg/kg): 4 h
k el [9]: 4.47e-05 s⁻¹
MRT [9]: 6.21 h
half-life [9]: 258 min
AUC(0-t) (serum, Rat No 6, oral 10 mg/kg): 22600 ng·h/mL
Cmax (serum, Rat No 6, oral 10 mg/kg): 5400 ng/mL
Tmax (serum, Rat No 6, oral 10 mg/kg): 2 h
k el [10]: 7.95e-05 s⁻¹
MRT [10]: 3.5 h
half-life [10]: 145 min
AUC(0-t) [11]: 23500 ng·h/mL
Cmax [11]: 5930 ng/mL
Tmax [11]: ~1.5 h
k el [11]: 1.91e-05 s⁻¹
MRT [11]: 14.5 h
half-life [11]: 604 min
CL [12]: 0.167 L/h
Vd [12]: 2.43 L
Time of highest average serum concentration (rats no. 1–3 (sampled 0–1.5, 12, 24 h), oral 10 mg/kg): 1.5 h
Time of highest average serum concentration (rats no. 4–6 (sampled 2–48 h), oral 10 mg/kg): 2 h
Time of first measurement of SCI concentration greater than 0 mg/L (serum, after oral 10 mg/kg): 30 min
SMILES: O[C@H]1[C@H](O)[C@@H](O)[C@H](O)[C@@H](O)[C@@H]1O [SCI, scyllo-inositol]
Side effects of SCI supplementation noticed during the study (oral 10 mg/kg, up to 48 h): no side effects
